Results reported in the NIST ThermoML archive (doi:10.1021/je7005055).
Numbers after ± are expanded uncertainties.

What was measured:
[1] = 298.15 K; 101.33 kPa; Liquid
[2] = xn = mol fraction of the nth substance listed; settings: 298.15 K, 101 kPa, Liquid

Q: For `CN1CCOCC1` [N-methylmorpholine], which mass density [1] is on record?
A: 914.06 ± 1.5 kg/m3

Q: What does the source list for `CN1CCOCC1` [N-methylmorpholine] + CCCCCCCCO?
A: mass density ([2]; x1 = 0.0461): 823.88 ± 0.64 kg/m3; mass density ([2]; x1 = 0.1101): 827.55 ± 0.65 kg/m3; mass density ([2]; x1 = 0.1862): 832.09 ± 0.66 kg/m3; mass density ([2]; x1 = 0.2381): 835.33 ± 0.67 kg/m3; mass density ([2]; x1 = 0.2848): 838.58 ± 0.68 kg/m3; mass density ([2]; x1 = 0.3484): 843.06 ± 0.7 kg/m3; mass density ([2]; x1 = 0.4029): 846.99 ± 0.72 kg/m3; mass density ([2]; x1 = 0.4899): 853.86 ± 0.75 kg/m3; mass density ([2]; x1 = 0.5121): 855.92 ± 0.76 kg/m3; mass density ([2]; x1 = 0.6012): 863.81 ± 0.8 kg/m3; mass density ([2]; x1 = 0.6547): 869.5 ± 0.82 kg/m3; mass density ([2]; x1 = 0.7213): 875.97 ± 0.86 kg/m3; mass density ([2]; x1 = 0.7831): 883.26 ± 0.9 kg/m3; mass density ([2]; x1 = 0.8353): 889.72 ± 0.93 kg/m3; mass density ([2]; x1 = 0.8958): 897.82 ± 0.98 kg/m3; mass density ([2]; x1 = 0.9541): 905.92 ± 1 kg/m3; mass density ([2]; x1 = 0.9792): 909.72 ± 1 kg/m3

Q: What does the source list for `CN1CCOCC1` [N-methylmorpholine] + CCCCCCO?
A: mass density ([2]; x1 = 0.0459): 818.34 ± 0.66 kg/m3; mass density ([2]; x1 = 0.1098): 823.37 ± 0.66 kg/m3; mass density ([2]; x1 = 0.1852): 829.49 ± 0.67 kg/m3; mass density ([2]; x1 = 0.2377): 833.69 ± 0.68 kg/m3; mass density ([2]; x1 = 0.2855): 837.76 ± 0.69 kg/m3; mass density ([2]; x1 = 0.3495): 843.34 ± 0.7 kg/m3; mass density ([2]; x1 = 0.4034): 848.09 ± 0.72 kg/m3; mass density ([2]; x1 = 0.4887): 855.97 ± 0.75 kg/m3; mass density ([2]; x1 = 0.5129): 858.26 ± 0.75 kg/m3; mass density ([2]; x1 = 0.5998): 866.75 ± 0.79 kg/m3; mass density ([2]; x1 = 0.6583): 872.76 ± 0.82 kg/m3; mass density ([2]; x1 = 0.7174): 879.14 ± 0.85 kg/m3; mass density ([2]; x1 = 0.7844): 886.51 ± 0.9 kg/m3; mass density ([2]; x1 = 0.8341): 892.31 ± 0.93 kg/m3; mass density ([2]; x1 = 0.8964): 899.75 ± 0.98 kg/m3; mass density ([2]; x1 = 0.9538): 907.13 ± 1 kg/m3; mass density ([2]; x1 = 0.9784): 910.69 ± 1 kg/m3

Q: What does the source list for `CN1CCOCC1` [N-methylmorpholine] + CCCCCO?
A: mass density ([2]; x1 = 0.0487): 813.72 ± 0.67 kg/m3; mass density ([2]; x1 = 0.1129): 820.02 ± 0.67 kg/m3; mass density ([2]; x1 = 0.1766): 826.08 ± 0.67 kg/m3; mass density ([2]; x1 = 0.2412): 832.41 ± 0.68 kg/m3; mass density ([2]; x1 = 0.2801): 836.23 ± 0.69 kg/m3; mass density ([2]; x1 = 0.3998): 847.87 ± 0.72 kg/m3; mass density ([2]; x1 = 0.4612): 854.03 ± 0.73 kg/m3; mass density ([2]; x1 = 0.5826): 866.38 ± 0.78 kg/m3; mass density ([2]; x1 = 0.6444): 872.93 ± 0.81 kg/m3; mass density ([2]; x1 = 0.7267): 881.91 ± 0.86 kg/m3; mass density ([2]; x1 = 0.7801): 887.89 ± 0.89 kg/m3; mass density ([2]; x1 = 0.8226): 892.69 ± 0.92 kg/m3; mass density ([2]; x1 = 0.8811): 899.57 ± 0.96 kg/m3; mass density ([2]; x1 = 0.9428): 907.1 ± 1 kg/m3; mass density ([2]; x1 = 0.9854): 912.11 ± 1.1 kg/m3

Q: What does the source list for `CN1CCOCC1` [N-methylmorpholine] + CCCCO?
A: mass density ([2]; x1 = 0.0455): 811.49 ± 0.77 kg/m3; mass density ([2]; x1 = 0.1089): 818.95 ± 0.77 kg/m3; mass density ([2]; x1 = 0.1675): 825.55 ± 0.78 kg/m3; mass density ([2]; x1 = 0.2399): 833.8 ± 0.79 kg/m3; mass density ([2]; x1 = 0.2811): 838.33 ± 0.8 kg/m3; mass density ([2]; x1 = 0.3494): 845.7 ± 0.81 kg/m3; mass density ([2]; x1 = 0.3985): 850.99 ± 0.82 kg/m3; mass density ([2]; x1 = 0.4533): 856.71 ± 0.83 kg/m3; mass density ([2]; x1 = 0.5285): 864.54 ± 0.85 kg/m3; mass density ([2]; x1 = 0.6444): 876.67 ± 0.89 kg/m3; mass density ([2]; x1 = 0.7198): 885.45 ± 0.92 kg/m3; mass density ([2]; x1 = 0.7865): 891.47 ± 0.95 kg/m3; mass density ([2]; x1 = 0.8237): 895.31 ± 0.97 kg/m3; mass density ([2]; x1 = 0.8843): 901.73 ± 1 kg/m3; mass density ([2]; x1 = 0.9411): 907.87 ± 1 kg/m3; mass density ([2]; x1 = 0.9801): 912 ± 1.1 kg/m3

Q: For `CN1CCOCC1` [N-methylmorpholine] + CCCO, which mass density ([2]; x1 = 0.0237) is on record?
A: 803.87 ± 0.78 kg/m3

Q: What about the mass density ([2]; x1 = 0.1003) of the same molecule?
A: 816.55 ± 0.78 kg/m3

Q: What about the mass density ([2]; x1 = 0.1657) of the same molecule?
A: 826.67 ± 0.78 kg/m3

Q: What about the mass density ([2]; x1 = 0.2336) of the same molecule?
A: 836.52 ± 0.78 kg/m3

Q: And the mass density ([2]; x1 = 0.2812)?
A: 843.01 ± 0.79 kg/m3

Q: What about the mass density ([2]; x1 = 0.3458) of the same molecule?
A: 851.12 ± 0.8 kg/m3

Q: What about the mass density ([2]; x1 = 0.3988) of the same molecule?
A: 857.14 ± 0.81 kg/m3

Q: What about the mass density ([2]; x1 = 0.4476) of the same molecule?
A: 861.99 ± 0.82 kg/m3

Q: And the mass density ([2]; x1 = 0.5784)?
A: 874.68 ± 0.86 kg/m3

Q: And the mass density ([2]; x1 = 0.6347)?
A: 879.93 ± 0.88 kg/m3

Q: What about the mass density ([2]; x1 = 0.7195) of the same molecule?
A: 888.06 ± 0.92 kg/m3

Q: What about the mass density ([2]; x1 = 0.7684) of the same molecule?
A: 892.76 ± 0.94 kg/m3

Q: What about the mass density ([2]; x1 = 0.8327) of the same molecule?
A: 898.56 ± 0.97 kg/m3

Q: And the mass density ([2]; x1 = 0.8674)?
A: 901.93 ± 0.99 kg/m3

Q: What about the mass density ([2]; x1 = 0.9443) of the same molecule?
A: 908.83 ± 1 kg/m3

Q: And the mass density ([2]; x1 = 0.9878)?
A: 912.75 ± 1.1 kg/m3

Q: Which results are given for `CN1CCOCC1` [N-methylmorpholine] + CCO?
A: mass density ([2]; x1 = 0.0511): 797.55 ± 0.67 kg/m3; mass density ([2]; x1 = 0.1166): 812.41 ± 0.65 kg/m3; mass density ([2]; x1 = 0.1795): 825.38 ± 0.63 kg/m3; mass density ([2]; x1 = 0.2438): 837.23 ± 0.63 kg/m3; mass density ([2]; x1 = 0.2795): 843.43 ± 0.62 kg/m3; mass density ([2]; x1 = 0.3532): 854.69 ± 0.63 kg/m3; mass density ([2]; x1 = 0.4021): 861.24 ± 0.64 kg/m3; mass density ([2]; x1 = 0.4573): 867.56 ± 0.65 kg/m3; mass density ([2]; x1 = 0.4982): 871.73 ± 0.67 kg/m3; mass density ([2]; x1 = 0.5342): 875.35 ± 0.68 kg/m3; mass density ([2]; x1 = 0.5832): 879.41 ± 0.71 kg/m3; mass density ([2]; x1 = 0.6432): 884.36 ± 0.74 kg/m3; mass density ([2]; x1 = 0.7234): 890.96 ± 0.8 kg/m3; mass density ([2]; x1 = 0.7786): 895.53 ± 0.84 kg/m3; mass density ([2]; x1 = 0.8216): 899.13 ± 0.88 kg/m3; mass density ([2]; x1 = 0.8794): 904.05 ± 0.93 kg/m3; mass density ([2]; x1 = 0.9432): 909.42 ± 1 kg/m3; mass density ([2]; x1 = 0.9832): 912.63 ± 1 kg/m3

Q: Which mass density [1] does the source give for `CCCCO` [butan-1-ol] here?
A: 805.92 ± 1 kg/m3

Q: With `CCO` [ethanol] as the molecule, how does the mass density [1] read?
A: 784.94 ± 0.31 kg/m3

Q: For `CCCCCCO` [hexan-1-ol], which mass density [1] is on record?
A: 814.95 ± 0.58 kg/m3

Q: Which mass density [1] does the source give for `CCCCCCCCO` [octan-1-ol] here?
A: 821.65 ± 0.57 kg/m3

Q: For `CCCCCO` [pentan-1-ol], which mass density [1] is on record?
A: 810.83 ± 0.59 kg/m3

Q: Which mass density [1] does the source give for `CCCO` [propan-1-ol] here?
A: 799.52 ± 1 kg/m3
